Assays:
[1] = test system: influenza A virus A/Puerto Rico/8/34(PR8)-Luc (IAV-Luc); assay type: cell-based
[2] = test system: A/WSN33/H1N1 influenza virus; experiment: Prophylactic treatment of influenza-infected mice, lung index; details: 50 mg/kg intragastric, from two days before infection and 5 days after; 40 LD50 via nasal dripping; compared with 50 mg/kg ribavirin; FIG. 4
Excerpt: […] Barb/C mice (6- to 8-week old) were randomly divided into 4 groups (A, B, C, D) with 5 mice in each group. All animals were marked by ear clipping and then treated with a specified preparation. Group A was a blank control group, Group B was a group in which PBS was used to resist virus infection, Group C was a group in which ribavirin was used to resist virus infection, and Group D was a group in which azithromycin was used to resist virus infection. Two days before the drugs being used to resist virus infection, the mice were treated with 50 mg/kg ribavirin and 50 mg/kg azithromycin by intragastric administration, and were infected with the influenza virus via nasal dripping with a dose of 40 LD50 (10^3 PFU/ml) on the third day (50 μl/mouse), and PBS was administered instead in the blank control group. The mice were administered consecutively for 5 days after virus infection, and the administration method was same as above. After 12 hours of fasting and water deprivation, the body weights were weighed, the lungs were incised aseptically and weighed after the mice were sacrificed by eyeball extirpating, and the lung indexes were calculated so as to evaluate the protective effect of azithromycin for mice in influenza virus infection, in which the calculation method of the lung index was a conventional calculation method known in the art.

HA/NA-HIVLuc pseudovirus = assay type: cell-based, influenza virus; details: A549 cells, pre-incubated 8 h with concentration gradients, relative to absolute ethyl alcohol, FIG. 5
[3] = test system: IAV-Luc influenza virus (A/Puerto Rico/8/34(PR8)-Luc); assay type: cell-based; details: 10 μM, A549 cells, three treatment schemes, detection after 24 h, FIG. 7
[4] = target: RNA polymerase of influenza virus (Influenza A virus, UniProt P03428+P03431+P03433); assay type: cell-based

erythromycin
ability to resist influenza virus infection (infection rate relative to absolute ethyl alcohol control) [1]: had the ability to resist influenza virus infection

azithromycin
protective effect for mice in influenza virus infection (lung index) [2]: better protective effect for mice in influenza virus infection as compared with ribavirin
inhibition of influenza virus (pseudovirus) infection at various concentrations (HA/NA-HIVLuc pseudovirus): inhibited influenza virus infection and the inhibitory effect was concentration-dependent
site of antiviral action (host cell versus virus particles) [3]: exerted antiviral effect mainly by acting on the virus particles
ability to resist influenza virus infection (infection rate relative to absolute ethyl alcohol control) [1]: had the ability to resist influenza virus infection
efficacy against influenza virus infection compared among the macrolide antibiotics ([1]; 10 μM, A549 cells, FIG. 1): had the strongest efficacy
inhibitory effect against influenza virus infection in the screening of small molecule compounds ([1]; 10 μM, A549 cells, FIG. 2): quite strong inhibitory effect against influenza virus infection
ability to resist influenza virus infection compared with oseltamivir ([1]; same concentration (10 μM), A549 cells, FIG. 3): stronger than that of oseltamivir
effect on the replication of the RNA polymerase of influenza virus [4]: did not affect the replication of the RNA polymerase of influenza virus

roxithromycin
ability to resist influenza virus infection (infection rate relative to absolute ethyl alcohol control) [1]: had the ability to resist influenza virus infection

midecamycin
ability to resist influenza virus infection (infection rate relative to absolute ethyl alcohol control) [1]: had the ability to resist influenza virus infection
